Data set [1] relates to B16 melanoma cells. The note with it: DFMO in combination with interferon; cited from earlier work.
Data set [2] deals with human alpha [leucocyte] interferon. The note with it: mdbk cells.
Data set [3] has as its system human beta interferon. Type of data set: cell-based.
Data set [4] relates to human gamma interferon. In kind it is cell-based.
For data set [5], the target named is T1, spermidine synthase (Homo sapiens, UniProt P19623).
T1 sequence (P19623 1-302): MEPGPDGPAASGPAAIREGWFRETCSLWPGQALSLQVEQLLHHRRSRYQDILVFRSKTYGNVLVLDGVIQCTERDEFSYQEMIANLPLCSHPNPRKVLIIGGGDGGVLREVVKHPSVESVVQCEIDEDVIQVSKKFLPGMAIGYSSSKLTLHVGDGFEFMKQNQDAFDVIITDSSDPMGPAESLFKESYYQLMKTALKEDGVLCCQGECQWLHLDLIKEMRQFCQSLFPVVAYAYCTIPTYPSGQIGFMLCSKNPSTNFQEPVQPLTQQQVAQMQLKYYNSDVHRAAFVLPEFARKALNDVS
In words: Spermidine synthase inhibiting activity. Type of data set: biochemical. The note with it: pH 8.2, 37°, 10 min, 20 μM decarboxylated S-adenosyl-L-methionine.
Protocol: Reactions were initiated by the addition of enzyme and incubated for 10 minues at 37° . The reactions were stopped by the additions of 5 μL of 100 mM spermidine and 5 μL of a slurry of 160 mg/mL of Darco G60 in water. The mixtures were centrifuged at 10,000×g for 2 minutes and a 40 μL aliquot of the supernate counted. Blank reactions were run using zero incubation time, or omitting enzyme or putrescine.
This assay made use of the adsorption of unreacted substrate, decarboxylated S-adenosyl-L-methionine, on charcoal while leaving the product polyamine in solution.

The test system of data set [6] is vesicular stomatitis virus [VSV], New Jersey strain. In kind it is cell-based. The note with it: without interferon; Maden-Darby bovine kidney cells.

Structures can show the parent of a compound that is named as a salt.

Turning to `NCCC[C@](N)(C(=O)O)C(F)F` [DFMO, α-difluoromethyl ornithine], the “suppression of tumor growth of B16 melanoma cells” value in data set [1] is listed as “total or near total suppression”.

Regarding `NCCCCCC(CCN)SCCOCn1cnc2c(N)ncnc21` (stereo not shown) [Example 1, 9-[2-oxa-5-thia-6-(2-aminoethyl)-11-aminoundecyl]-6-aminopurine], in data set [2], the “potentiation of human alpha [leucocyte] interferon” value is recorded as 2 × and the “potentiation of human alpha interferon” value is on record as 8 ×. Also, the “potentiation of human beta interferon” value in data set [3] was found to be 16 ×. For the same compound, in data set [4], the “potentiation of human gamma interferon” value was 4 ×. Further, the IC50 (usually the midpoint of a concentration-inhibition curve) in data set [5] is ~100 µM. In addition, in data set [6], the “antiviral activity of compound by itself against VSV” value is given as “no antiviral activity”.

On to `NCCCCCC(CCN)SC[C@@H]1C[C@H](n2cnc3c(N)ncnc32)[C@@H](O)[C@H]1O` (relative stereo) [Example 3, 1,t-(9-adenyl)-2,c-3,c-dihydroxy-4,t-[2-thia-3-(2-aminoethyl)-8-aminooctyl]cyclopentane hydrochloride], for which, in data set [2], the “potentiation of human alpha interferon” value was 2 ×. This compound came in with an IC50 in data set [5] of 2 µM. Besides, the “antiviral activity of compound by itself against VSV” value in data set [6] is given as “no antiviral activity”.

Source of the values: patent publication US4803272A (priority 1987, dated 1989).
